According to PubChem BioAssay AID1320 (NMMLSC, 2008):
Active and inactive are the calls of the source. How the calls were made is not given here.

Molecular target: Bcl-2-related protein A1 (Homo sapiens) (UniProt Q16548)
Experiment: Bfl-1/Bim complex disruptors – biochemical, multiplexed, bead-based flow cytometry, dose response (AID 1320); further: test concentration not given here
Settings: Bim peptide-Bfl-1 binding, fluorescence

Bcl-2-related protein A1 (Homo sapiens), sequence (Q16548 whole entry, looked up): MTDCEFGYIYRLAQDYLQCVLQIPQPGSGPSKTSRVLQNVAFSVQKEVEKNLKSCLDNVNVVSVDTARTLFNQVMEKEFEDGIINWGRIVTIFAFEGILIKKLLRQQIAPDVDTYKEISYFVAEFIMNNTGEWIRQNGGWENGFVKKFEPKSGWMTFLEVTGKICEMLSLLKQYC

| Compound | percent span (inhibition) |
| --- | --- |
| Cc1ccc(C)n1-c1cccc(C(=O)O)c1 | inactive |
| COc1ccc2nc(C)cc(SCC(=O)N/N=C/c3ccc(O)c(O)c3)c2c1 | inactive |
| O=C(O)CCN1C(=O)/C(=C\c2ccc(-c3nc4ccccc4s3)o2)SC1=S | inactive |
| CCOc1cc(CNc2ccc(N(C)C)cc2)cc(Br)c1OCC(=O)NC(C)(C)C | inactive |
| COc1ccc(C)cc1Nc1ccc(C(=O)O)cc1[N+](=O)[O-] | inactive |
| CNCc1ccccc1Sc1cc(O)ccc1O | inactive |
| O=C(c1cnccn1)N1CCN(c2ccccc2F)CC1 | inactive |
| CN(C)c1ccc(/C=C2/SC(=O)N(CCN=C3NS(=O)(=O)c4ccccc43)C2=O)cc1 | inactive |
| Clc1ccc2c(N/N=C/c3ccc(Br)cc3)ccnc2c1 | inactive |
| Fc1ccc(C2=Nn3c(Cc4ccccc4F)nnc3SC2)cc1 | inactive |
| COc1cccc(N2CC(C(=O)Nc3nnc(SCC(=O)c4ccccc4)s3)CC2=O)c1 (centres undefined) | inactive |
| Cc1ccc(Nc2nc(CSc3nnc(-c4cccnc4)n3-c3ccccc3C)cs2)cc1 | inactive |
| CCOC(=O)C1(CC/C(C)=N\NC(N)=O)CC(C)(C)OC1=O (centres undefined) | inactive |
| COc1cc(/C=C2/NC(=O)N(Cc3ccccc3F)C2=O)ccc1O | inactive |
| O=C(Nc1ccccc1)Nc1ccc2ncoc2c1 | inactive |
| CC1(C)CC(NC(=O)COc2ccc([N+](=O)[O-])cc2)CC(C)(C)N1 | inactive |
| OCCN1CCN(CCCc2c3c(cc4c2CCC4)CCC3)CC1 | inactive |
| COc1cccc(/C=N/Nc2nn3cnnc3c3ccccc23)c1 | inactive |
| Cc1cc(C)nc(/N=C(\N)N2CCc3ccccc32)n1 | inactive |
| Cc1cccc(/C=N/N(CCO)C2=NS(=O)(=O)c3ccccc32)c1 | inactive |
| O=C(CCCN1C(=O)c2cccc3cccc(c23)C1=O)N1CCN(c2ccccn2)CC1 | inactive |
| Cc1ccc(C)c(Oc2ncnc(N)c2[N+](=O)[O-])c1 | inactive |
| CCCCOC(=O)c1nc(Cl)c(Cl)c(N)c1Cl | inactive |
| O=C(COc1ccccc1Br)NCc1ccccn1 | inactive |
| OCCC1CN(Cc2nc3c(s2)CCCC3)CCN1Cc1ccsc1 (centres undefined) | inactive |

| Compound | percent span (inhibition) |
| --- | --- |
| Nc1ccc(Nc2nc(-c3ccncc3)cs2)cc1 | inactive |
| Cn1c(=O)c(C(=O)COC(=O)c2cc(-c3ccco3)nc3ccccc23)c(N)n(CC2CC2)c1=O | inactive |
| Cc1cc(NC(=O)CSc2nnc(-c3cccnc3)n2Cc2ccccc2)no1 | inactive |
| NC(=O)c1c(NC(=O)C2CCCO2)sc2c1CCCC2 (centres undefined) | inactive |
| O=C(NC1=NCCS1)NC12CC3CC(CC(C3)C1)C2 | inactive |
| CCOc1cc(NC(=S)NC)c(OCC)cc1NC(=O)c1ccc(OC)cc1 | inactive |
| Cc1ccc(-c2n[nH]c(=S)n2-c2ccccc2)cc1 | inactive |
| O=C(c1cc2ccccc2oc1=O)N(c1ccccc1)C1C=CS(=O)(=O)C1 (centres undefined) | inactive |
| Brc1ccc2ncnc(Nc3ccc(N4CCOCC4)cc3)c2c1 | inactive |
| COCCNC(=S)Nc1cc(OC)c(OC)cc1C#N | inactive |
| O=C(O)c1cccc(NC2=C(Cl)C(=O)c3ccccc3C2=O)c1 | inactive |
| Cc1c(N2C(=O)c3ccc4c5c(ccc(c35)C2=O)CC4)c(=O)n(-c2ccccc2)n1C | inactive |
| CCN1CCN(c2cc(C)c3cc(NC(=S)N4CC(C)CC(C)C4)ccc3n2)CC1 (centres undefined) | inactive |
| O=C(NC1=C(Nc2ccc(F)cc2)C(=O)c2ccccc2C1=O)c1ccc(Cl)cc1 | inactive |
| COc1cccc(-n2nnnc2SCC(=O)Nc2cccc(NC(C)=O)c2)c1 | inactive |
| CCCCCCc1cc2cc(C(=O)Nc3ccccc3)c(=O)oc2cc1O | inactive |
| O=C(COC(=O)CCCN=C1NS(=O)(=O)c2ccccc21)NC(=O)NC1CCCC1 | inactive |
| Cc1ccc(-c2cc(-c3ccccc3Cl)c(C#N)c(N)n2)o1 | inactive |
| C/C(=N\NC(=O)Cn1nc(C)c([N+](=O)[O-])c1C)c1ccc(O)cc1 | inactive |
| CCCC1(C(=O)OCC)NC(c2cc(OC)c(OC)c(OC)c2)C2C(=O)N(CC)C(=O)C21 (centres undefined) | inactive |
| COc1ccc(S(=O)(=O)NCCSc2ccc(Cl)cc2)cc1OC | inactive |
| CN(C)c1cccc(NC(=O)C2(C)CC2(Cl)Cl)c1 (centres undefined) | inactive |
| COc1cc(N2CCOCC2)ccc1C=C1C(=O)NC(=O)NC1=O | inactive |
| O=C(O)C1=C[C@H](C2CC2)C[C@H](OCCCCO)O1 | inactive |
